Entries after “also recorded” stand apart in the source; their conditions may differ. Like-named read-outs stand apart in the source and are kept apart here.
What was measured:
[1] = test system: α1 adrenergic receptors; experiment: Binding to α1 adrenergic receptors (3H-prazosin), rat cerebral cortex homogenate; conditions: for affinity for the α1 receptor with respect to the α2 receptor: in words, comparison of α1 and α2 binding; for Ki: read-out: SPECIFIC BINDING, Kl, α 1, 3H-prazosin, average of three assays
Protocol: (§1) The tests were carried out on rat cerebral cortex homogenate, according to the method described by P. Greengross and R. Bremmerclaus, Eur. J. Pharmacol. (1979) 55 323-326.
(§2) The results represent the average of the three assays. The Ki values were calculated according to Cheng and Prussoff (Biochem. Parmacol. 1973 22 3099-3108).

[2] = test system: mesenteric territory, electrical stimulation of the sympathetic nerves; experiment: Inhibition of sympathetic excitation in vivo: vasoconstriction of perfused mesenteric territory by electrical stimulation of sympathetic nerves; conditions: i.v. 0.5 mg.kg^-1; 7 Hz; rat
Protocol: (§3) This study was made for the most hypotensive derivative, STB 6. The vascular reactivity of the mesenteric territory perfused in situ in the rat was measured (according to Jackson and Campbell, Eur. J. Pharmacol., 1980, 66, 217-224). After anesthetizing of the rat with pentothal (40 mg.kg^-1 i.p.) the mesenteric territory was perfused at constant flow from a catheter diverting the blood stream of the abdominal aorta. The vasoconstrictor activity resulting from periarterial electrical excitation of the sympathetic nerves (7 Hz) and […] was measured. The activities of the Berbine derivatives administered intravenously were determined for the two types of pressure response. The results obtained are shown in FIGS. 4a and 4b in which the average blood pressure ΔP mm Hg is plotted on the ordinates and time plotted on the abscissae, the injection of the product to be tested or of the placebo (constituted by the same volume of physiological serum) being at time 0.
(§4) FIG. 4a relates to the vasoconstriction caused by electrical stimulation and FIG. 4b to that caused by noradrenalin.

[3] = molecular target: T1, α2 adrenergic receptors (Rattus norvegicus, UniProt P22909); experiment: Binding to α2 adrenergic receptors (3H-yohimbin), rat cerebral cortex homogenate; conditions: for Ki: SPECIFIC BINDING, Kl, α 2, 3H-yohimbin, average of three assays
T1 construct: from tissue; host or cells: rat cerebral cortex homogenate
T1 sequence (P22909 1-465): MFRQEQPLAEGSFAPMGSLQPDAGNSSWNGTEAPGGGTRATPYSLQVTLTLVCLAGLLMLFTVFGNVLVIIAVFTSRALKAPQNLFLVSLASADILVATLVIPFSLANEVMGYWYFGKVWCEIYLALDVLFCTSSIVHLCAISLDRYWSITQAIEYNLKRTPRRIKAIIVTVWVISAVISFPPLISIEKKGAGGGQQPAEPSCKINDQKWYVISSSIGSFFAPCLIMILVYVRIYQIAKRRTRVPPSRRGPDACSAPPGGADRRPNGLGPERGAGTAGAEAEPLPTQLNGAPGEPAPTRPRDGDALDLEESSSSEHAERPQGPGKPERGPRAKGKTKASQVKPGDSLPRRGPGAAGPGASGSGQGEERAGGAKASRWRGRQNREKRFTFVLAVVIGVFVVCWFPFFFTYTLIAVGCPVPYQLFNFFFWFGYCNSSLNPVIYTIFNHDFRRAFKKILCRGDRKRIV
Protocol: as §1, §2

[4] = molecular target: T2, α-adrenergic receptor / phenylephrine contraction of isolated rat aorta (Rattus norvegicus, UniProt P23944); experiment: Antagonism of phenylephrine on the isolated rat aorta (α-blocking activity, Schild analysis); conditions: for r (correlation coefficient of the straight line): Schild's straight line; for r (correlation coefficient of the straight line) / n (slope of Schild's straight line) / Kb: against phenylephrine; for Kb: Schild's relation, read-out: pA2 (converted); for type of antagonism against phenylephrine / affinity for the adrenergic receptor: isolated rat aorta; for affinity for the adrenergic receptor: in words
T2 construct: phenylephrine on the isolated rat aorta; from tissue; host or cells: isolated rat aorta
T2 sequence (P23944 1-561): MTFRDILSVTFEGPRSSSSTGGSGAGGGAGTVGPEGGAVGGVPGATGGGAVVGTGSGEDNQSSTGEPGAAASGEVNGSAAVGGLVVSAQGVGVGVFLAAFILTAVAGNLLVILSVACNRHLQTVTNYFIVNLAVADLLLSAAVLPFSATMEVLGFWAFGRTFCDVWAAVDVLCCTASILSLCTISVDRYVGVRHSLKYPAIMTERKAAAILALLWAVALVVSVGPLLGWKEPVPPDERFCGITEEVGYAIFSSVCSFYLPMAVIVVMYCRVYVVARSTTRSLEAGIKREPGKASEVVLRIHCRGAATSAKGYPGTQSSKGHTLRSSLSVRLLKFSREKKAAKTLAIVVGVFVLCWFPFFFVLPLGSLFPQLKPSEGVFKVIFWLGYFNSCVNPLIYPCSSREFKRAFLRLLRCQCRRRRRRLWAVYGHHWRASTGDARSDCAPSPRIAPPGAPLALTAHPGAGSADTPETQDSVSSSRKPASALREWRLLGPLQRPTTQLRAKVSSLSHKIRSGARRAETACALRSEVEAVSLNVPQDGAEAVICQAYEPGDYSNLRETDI
Description: (2) Study of α-blocking activity: study of the antagonism between the derivatives of Berbine and phenylephrine on the isolated rat aorta
The quantitative evaluation of the antagonism between the derivatives to be tested and phenylephrine was made by analysis to effect-concentration relationships in the presence and absence of antagonist and the PA2 values calculated with Schild's relation (Arunlasksha na O. and Schild H. P., Br. J. Pharmacol., 1959, 14, 48-58). […] In FIG. 2 the E effect (% of maximum contraction) in the absence and presence of STB 6 (-) is given in the ordinate, and the abscissa gives the log of the phenylephrine concentration. The different curves relate to the following concentrations:
FIG. 2b is the Schild representation (x being the ratio of phenylephrine concentrations which gives a 50% response in the presence and in the absence of STB 6 (-)). On the ordinate are Log (x-1) and on the abscissa Log [(-) STB 6].
The parameters of Schild's relation were also measured in the presence of STB 52 (-) in the same experimental conditions as for STB 6 (-).

[5] = test system: mesenteric territory, noradrenalin; experiment: Vasoconstriction of perfused mesenteric territory caused by noradrenalin; format: in vivo; conditions: i.v. 0.5 mg.kg^-1; noradrenalin 200 ng; rat
Protocol: as §3, §4

[6] = test system: normotensive rat; experiment: Hypotensive activity in the anesthetized normotensive rat; format: in vivo; conditions: for effect on blood pressure: 15 minutes after i.v. administration
Protocol: The study was carried out in the normotensive rat anesthetized with pentothal (40 mg.kg^-1 i.p.). The blood pressure was measured with a catheter placed in the carotid artery and linked to a pressure cell (Statham p 23 DB) and to a recorder according to the method described by Waeldele and Stoclet (J. Pharmacol. Paris 1973, 66, 357-366). The derivatives were administered in increasing doses every 15 minutes by intravenous injection (i.v.).
Each point is the average of the values obtained in n aminals ±standard error.
In FIG. 1 the abscissae show the quantities administered of the compound to be tested, and the ordinates show the average blood pressure ΔP mm Hg.

[7] = Toxicity in the mouse (LD50); conditions: in vivo, male mice
Protocol: The LD50 was determined in the mouse. The derivatives to be tested were administered in aqueous solution containing 7% dimethylformamide, by esophageal forced feeding of 0.4 ml per 20 g of body weight, to male mice weighing 20 to 25 g.

[8] = dog; cited from earlier work
[9] = cat; cited from earlier work
[10] = test system: hypertensive effects of adrenalin; conditions: dog; cited from earlier work
[11] = test system: hypertensive patients; conditions: cited from earlier work

COc1cc2c(cc1OC)CN1CCc3cc(O)ccc3C1C2 (single isomer, unassigned; (-)) [(-) STB 6, 10,11-dimethoxy-3-hydroxy-5,6,13,13a-tetrahydro-8H-dibenzo-[a,g]-quinolizine]
affinity for the α1 receptor with respect to the α2 receptor [1]: strong affinity for the α1 receptor, with respect to that for the α2 receptor
Ki ([1]; rat cerebral cortex homogenate): 419 ± 132 nM
effect on vasoconstriction / pressure response caused by electrical stimulation of the sympathetic nerves [2]: decreases the vasoconstriction of the mesenteric territory caused by the electrical stimulation of the sympathetic nerves; also recorded: reduces the pressure response to sympathetic excitation
Ki [3]: 1020 ± 335 nM
r (correlation coefficient of the straight line) [4]: 0.99
n (slope of Schild's straight line) [4]: 0.93
Kb [4]: 39.8 nM
type of antagonism against phenylephrine [4]: competitive
affinity for the adrenergic receptor [4]: strong affinity for the adrenergic receptor
effect on pressure response due to noradrenalin injection [5]: without modifying the pressure response due to noradrenalin injection
effect on blood pressure [6]: significant drop in blood pressure
dose at which active on blood pressure ([6]; i.v.): 1 mg/kg
hypotensive activity, rank among the derivatives studied ([6]; i.v.): the most hypotensive of the derivatives studied

COc1cc2c(cc1OC)CN1CCc3cc(OC(=O)Cc4ccccc4)ccc3C1C2 (single isomer, unassigned; (-)) [(-) STB 52, 10,11-dimethoxy-3-phenacetyloxy-5,6,13,13a-tetrahydro-8H-dibenzo-[a,g]-quinolizine]
LD50 ([7]; oral (esophageal forced feeding), 7% dimethylformamide in water): > 800 mg/kg
mortality ([7]; oral, 800 mg.kg^-1 (limit of solubility)): 30%
r (correlation coefficient of the straight line) [4]: 0.99
n (slope of Schild's straight line) [4]: 1.00
Kb [4]: 100 nM
type of antagonism against phenylephrine [4]: as competitive an antagonist of phenylephrine as (-) STB 6
affinity for the adrenergic receptor [4]: strong affinity for the adrenergic receptor

COC(=O)[C@@H]1[C@H]2C[C@H]3c4[nH]c5ccccc5c4CCN3C[C@@H]2CC[C@@H]1O [Yohimbin]
Ki ([1]; rat cerebral cortex homogenate): 322 ± 26 nM

c1ccc2c(c1)CC1c3ccccc3CCN1C2 (single isomer, unassigned) [Berbine (-), 5,6,13,13a-tetrahydro-8H-dibenzo[a,g]quinolizine]
affinity for the α1 receptor with respect to the α2 receptor [1]: comparable affinities for the α1 and α2 receptors
Ki ([1]; rat cerebral cortex homogenate): 212 ± 26 nM
sympatholytic activity [8]: strong sympatholytic activity
Ki [3]: 140 ± 44 nM
sympatholytic activity [9]: strong sympatholytic activity

c1ccc2c(c1)CC1c3ccccc3CCN1C2 (stereo not shown) [Berbine, 5,6,13,13a-tetrahydro-8H-dibenzo[a,g]quinolizine]
effect on hypertensive effects of adrenalin [10]: reverses the hypertensive effects of adrenalin
hypotensive activity [11]: hypotensive activity

COc1cc2nc(N3CCN(C(=O)c4ccco4)CC3)nc(N)c2cc1OC [3H-prazosin, ^3 H-prazosin]
maximum binding, α1 receptors ([1]; radioligand, rat cerebral cortex homogenate): 200±21 fmoles.mg protein^-1

COc1cc2c(cc1OC)CN1CCc3cc(O)ccc3C1C2 (single isomer, unassigned; (+)) [(+) STB 6, 10,11-dimethoxy-3-hydroxy-5,6,13,13a-tetrahydro-8H-dibenzo-[a,g]-quinolizine]
Ki ([1]; rat cerebral cortex homogenate): 2930 ± 363 nM
effect on vasoconstriction / pressure response caused by electrical stimulation of the sympathetic nerves [2]: does not have a significant activity; also recorded: devoid of this activity at the same doses
Ki [3]: 901 ± 299 nM
type of antagonism against phenylephrine [4]: non-competitive antagonism against phenylephrine; also recorded: non-competitive antagonist of phenylephrine
effect on blood pressure [6]: do not induce a significant decrease in blood pressure

c1ccc2c(c1)CC1c3ccccc3CCN1C2 (single isomer, unassigned) [Berbine (+), 5,6,13,13a-tetrahydro-8H-dibenzo[a,g]quinolizine]
affinity for the α1 receptor with respect to the α2 receptor [1]: comparable affinities for the α1 and α2 receptors
Ki ([1]; rat cerebral cortex homogenate): 4730 ± 538 nM
Ki [3]: 569 ± 137 nM

^3 H-yohimbin [3H-yohimbin, reference compound]
maximum binding, α2 receptors ([3]; radioligand): 172.5±49.9 fmoles.mg protein^-1
Kd ([3]; read-out: KD of ligand, α2 receptors): 10.2 nM

Oc1ccc2c(c1)CCN1Cc3ccccc3CC21 (single isomer, unassigned; (+)) [(+) STB 4, 3-hydroxy-5,6,13,13a-tetrahydro-8H-dibenzo-[a,g]-quinolizine]
Ki ([1]; rat cerebral cortex homogenate): 1220 ± 175 nM
Ki [3]: 321 ± 72 nM
effect on blood pressure [6]: do not induce a significant decrease in blood pressure

Oc1ccc2c(c1)CCN1Cc3ccccc3CC21 (single isomer, unassigned; (-)) [(-) STB 4, 3-hydroxy-5,6,13,13a-tetrahydro-8H-dibenzo-[a,g]-quinolizine]
Ki ([1]; rat cerebral cortex homogenate): 462 ± 10 nM
Ki [3]: 307 ± 118 nM
effect on blood pressure [6]: significant drop in blood pressure
dose at which active on blood pressure ([6]; i.v.): 1 mg/kg

Source: US4645772A, “Levorotatory enantiomers of derivatives of 5,6,13,13a-tetrahydro-8H-dibenzo [A,G]quinolizine, preparative process, pharmaceutical compositions containing them and application” (Urpha, priority 1982, dated 1987)
